{
  "source": "patent US10154974B1",
  "about": "“Use of abscisic acid for the prevention and treatment of malaria” (The Regents of the University of California, priority 2015, dated 2018)",
  "key": {"[1]": {"system": "AsNOS", "assay": "AsNOS transcript levels in mosquito midgut", "assay_type": "in vivo, Anopheles stephensi", "conditions": "midguts, relative to controls, 4-6 hours post-feeding", "experimental": "(§1) For mosquito immune gene expression, 20 midguts were dissected from mosquitoes in each treatment group at 1, 2, 4, 6, 8 and 24 hours post-feeding. Midguts were sonicated and stored in Trizol at −20° C. for up to a week before RNA was extracted according to manufacturer's instructions. cDNA synthesis was carried out using QantiTect Reverse Transcription Kit (Qiagen) and 200 ng of cDNA used per reaction for qRT-PCR with Sybr Green (Applied Biosystems). Fold changes in expression levels were calculated using the comparative threshold cycle method. Data were normalized to the housekeeping gene ribosomal protein S7 and to the control treatment. Primers and cycling conditions for AsNOS, defensin, LRIM, TEP1, and APL1 were as previously described (Hauck E S, et al. Microbes Infect. 2013; 15:775-87). […] Samples were analyzed in triplicate with 250 ng of cDNA per reaction to confirm uniformity of amplification. […] All expression data were analyzed by one sample t-test.\n(§2) Transcript levels of a panel of immune genes previously described to play a role in the mosquito immune response to malaria parasites were examined. […] Mosquitoes were provided with a P. falciparum-infected bloodmeal supplemented with 100 nM ABA or with an equivalent volume of diluent as control, then analyzed at 1-24 hours post feeding."}, "[2]": {"system": "IgG1 and IgG2a", "assay": "IgM and IgG antibody isotype concentrations in mouse plasma", "assay_type": "in vivo, mice", "conditions": "days 9, 11 and 13 post-infection", "experimental": "FIG. 24 illustrates that ABA supplementation increases levels of IgG1 and IgG2a in plasma. Concentrations are shown of IgM and IgG antibody isotypes in mouse plasma with and without ABA supplementation on days 9, 11 and 13 post-infection with P. yoelii 17XNL. Data were analyzed by unpaired t-test."}, "[3]": {"system": "parasite-specific IgG and IgG1", "assay": "Western blot of infected RBC protein probed with mouse plasma", "assay_type": "in vivo", "conditions": "P. yoelii-infected mice", "from_the_text": "FIG. 26A-C illustrate that ABA-supplementation increased levels of parasite-specific IgG and IgG1 in mouse plasma. Shown are western blots of protein from uninfected and P. yoelii-infected RBCs probed with plasma from uninfected, P. yoelii-infected, ABA-supplemented P. yoelii-infected mice followed by IgG1 (FIG. 26A) and total IgG (FIG. 26B) secondary antibodies. Also shown is a densitometry analysis (FIG. 26C) of IgG1- and total IgG-bound protein from infected RBCs. Data are shown as fold change between control P. yoelii and ABA-supplemented P. yoelii plasma."}, "[4]": {"system": "prospero, escargot, ATG6, ATG8", "assay": "Expression of midgut epithelial cell turnover genes", "assay_type": "in vivo, Anopheles stephensi", "conditions": "P. falciparum-fed mosquito midguts", "experimental": "Data are shown as fold changed compared to control-treated mosquitoes. Each dot represents one replicate of 10 pooled midguts. Data were analyzed by one sample t-test. * p<0.05. nd indicates the prospero was not detectable at 72 or 96 hours."}, "[5]": {"system": "defensin", "assay": "Defensin mRNA levels in mosquito midgut", "assay_type": "in vivo, Anopheles stephensi", "conditions": "100 nM ABA, 4 hours post-feeding", "experimental": "as §1, §2"}, "[6]": {"system": "P. yoelii 17XNL", "assay": "P. yoelii 17XNL parasitemia in C57Bl/6 and casp1-/- mice", "assay_type": "in vivo", "experimental": "Daily parasitemia of three separate cohorts of mice with and without ABA supplementation. 3 to 5 mice were used per treatment in each infection. Data were analyzed by one-sided, unpaired t-test. # p<0.1, * p<0.05, ** p<0.005.\nFIG. 28A-B illustrate that ABA has no effect on parasitemia in caspase-1 knockout mice. […] 4-5 mice were used per treatment group. Data were analyzed by unpaired t-test. # p<0.1 * p<0.05."}},
  "data": [
    {"compound": "CC1=CC(=O)CC(C)(C)[C@@]1(O)/C=C/C(C)=C\\C(=O)O", "note": "(racemic) [ABA, (2Z,4E)-5-[(1S)-1-hydroxy-2,6,6-trimethyl-4-oxocyclohex-2-en-1-yl]-3-methylpenta-2,4-dienoic acid]", "values": [
      {"measurement": "AsNOS transcript levels induction", "setting": "[1]", "value": "up to 13 fold"},
      {"measurement": "levels of IgG1 in plasma", "setting": "[2]", "value": "increases"},
      {"measurement": "levels of IgG2a in plasma", "setting": "[2]", "value": "increases"},
      {"measurement": "levels of parasite-specific IgG and IgG1 in mouse plasma", "setting": "[3]", "value": "increased"},
      {"measurement": "expression of genes involved in midgut epithelial cell turnover", "setting": "[4]", "value": "reduces expression"},
      {"measurement": "defensin mRNA levels", "setting": "[5]", "value": "increase"},
      {"measurement": "parasitemia", "setting": "[6]; C57Bl/6 mice, three cohorts", "value": "significantly reduces"},
      {"measurement": "parasitemia", "setting": "[6]; caspase-1 knockout mice", "value": "no effect"}
    ]}
  ]
}
